The source of these data is patent US20120122728A1, “Method Of Screening Drugs For Reversal Of Amyloid Beta Neurotoxicity” (UNIVERSITY OF CENTRAL FLORIDA RESEARCH FOUNDATION, INC., priority 2009, published 2012).

In data set [1] the test system is cultured embryonic rat hippocampal neurons. Put plainly: MEA extracellular recording of spontaneous firing of cultured hippocampal neurons exposed to Aβ. In kind it is cell-based. The arrangement: time until spiking activity of the cells stopped: dose or concentration left out as unconfirmed. As to the method:
The MEAs and accompanying accessories, including the temperature controller, stimulator, amplifier and MC_Rack V 3.5.8 data acquisition software were obtained from ALA Scientific (Westbury, N.Y.) and Multichannel Systems (Reutlingen, Germany). The MEAs comprised of a glass base that acted as a substrate, gold connector contacts and electrodes composed of titanium nitride. Rings were made of Sylgard184 (Dow Corning) (1 part curing base and 10 parts elastomer base, cured at 60 uC for 45 minutes) using glass molds and were attached onto the MEAs after surface modification. Recordings were obtained from 12-16 D. old cultures. Cultures were kept in the incubator between recording sessions.
N-1(3-[trimethoxysilyl]propyl)-diethylenetriamine (DETA) was used to modify the MEAs to enhance cell attachment since the use of synthetic substrates such as DETA, allows for reproducible and precise quantification of the culture substrate properties. Glass coverslips (18 mm diameter, Number 1; VWR) were cleaned in two steps. First, they were soaked in 50/50% HCl (37%) (VWR)/methanol (Sigma), followed by H2SO4 (98%) (VWR) treatment. Next, they were rinsed in double distilled water. The coverslips were then boiled in deionized water, rinsed with acetone, and oven dried. The MEAs were initially cleaned overnight in 2% Tergazyme (Sigma) detergent solution. They were then rinsed in distilled water and plasma cleaned in a plasma cleaner (Harrick Plasma) for 30 mins. The N-1(3-[trimethoxysilyl]propyl)-diethylenetriamine (DETA) (United Chemical Technologies) surface assembled monolayer (SAM) film was formed by the reaction of the cleaned surfaces with a 0.1% (v/v) mixture of the organosilane in toluene. The DETA/toluene solution containing the MEAs was heated to 70 uC, rinsed with toluene, reheated to 70 uC, and then oven dried. Surfaces were characterized using contact angle measurement and X-ray photoelectron spectroscopy (XPS) as described previously.
(§1) All applied procedures were approved by the Institutional Animal Care and Use Committee of UCF. The protocol was modified from previously published work concerning embryonic rat hippocampal cultures. Pregnant rats, 18 days in gestation, obtained from Charles River were euthanized with carbon dioxide and the fetuses were collected in ice cold Hibernate E (BrainBits)/B27/Glutamax™/Antibiotic-Antimycotic (Invitrogen) (dissecting medium). Each fetus was decapitated and the whole brain was transferred to fresh ice cold dissecting medium. After isolation, the hippocampi were collected in a fresh tube of dissecting medium. Hippocampal neurons were obtained by triturating the tissue using a Pasteur pipette. In order to remove any debris from damaged cells the 1 ml cell suspension was layered over a 4 ml step gradient (Optipep diluted 0.505:0.495 (v/v) with the dissecting medium and then made to 15%, 20%, 25% and 35% (v/v) in the dissecting medium) followed by centrifugation for 15 min at 800 g and 4 uC. After centrifugation, one strong band of cells was obtained. This band of cells was resuspended in culture medium (Neurobasal/B27/Glutamax™/Antibiotic-Antimycotic) and plated at a density of 100 cells/mm2 on DETA coated coverslips for patch clamp electrophysiology and at 200 cells/mm2 on the MEAs.
(§2) Different concentrations of Aβ (1-42) (Bachem) aggregates were prepared according to the protocol by Klein [1] in Neurobasal medium without phenol red, and quantified using Immunoblots. Curcumin (Cayman Chemicals) was prepared and the concentration chosen according to previously published protocols.
In all experiments with MEAs Aβ was administered to the cells on day 16 in vitro. We chose experimental paradigms similar to those used for patch clamp electrophysiology, to study the potential therapeutic effects of curcumin. In coadministration experiments, cells were exposed to a mixture of 100 nM Aβ and 1 mM Curcumin for 24 hrs, and recordings were performed. […]

For a further data set, the system named is hippocampal cells. The experiment in a line: Cell survival (live dead assay, MTT assay) after Aβ treatment. The format is cell-based, rat. As to the method: To confirm this finding a MTT assay (3-[4,5-dimethylthiazol-2-yl]-2,5-diphenyl tetrazolium bromide) was performed on the amyloid treated cells and this supported the results obtained with the live dead assay.
On the technique in general: Formazan colour is commonly taken as a measure of viable cells.

Data set [2] deals with cultured embryonic rat hippocampal neurons. Put plainly: Whole cell patch clamp electrophysiology of hippocampal neurons exposed to Aβ. In kind it is cell-based.
Description: as §1, §2
For patch clamp electrophysiology experiments, Aβ was administered to the cells on day 10 in vitro and recordings were performed after 24 hrs to obtain baseline values for control cells and Aβ treated cells. In coadministration experiments, a mixture of 100 nM Aβ and 1 mM curcumin was administered for 24 hrs after which patch clamp electrophysiology recordings were performed. In sequential administration, cells were initially exposed to freshly aggregated Aβ alone, followed by replacement of the Aβ solution with curcumin for 24 hrs patch clamp recordings were performed 24 hrs after curcumin treatment. Whole-cell patch clamp recordings were performed at room temperature in a recording chamber on the stage of a Zeiss Axioscope 2 FS Plus upright microscope as described in [44].

In a further data set the test system is amyloid plaque burden. Conditions: transgenic APPsw mice; cited from earlier work.
Data set [3] addresses T1, Aβ oligomerization (Homo sapiens, UniProt P05067). The experiment in a line: Immunoblot of Aβ oligomers. The format is biochemical. The settings on record: immunoblot lane 2.
Description: Different concentrations of Aβ (1-42) (Bachem) aggregates were prepared according to the protocol by Klein [1] in Neurobasal medium without phenol red, and quantified using Immunoblots. Curcumin (Cayman Chemicals) was prepared and the concentration chosen according to previously published protocols [20].
Data set [4] addresses T1, Aβ oligomerization. Conditions: literature [20], compared with Ibuprofen; cited from earlier work.
Where [5] appears, read: all measured concentrations of Aβ.

T1 sequence (P05067 672-713 limits assumed): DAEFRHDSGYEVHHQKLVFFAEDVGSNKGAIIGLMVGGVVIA

Take “Aβ: Amyloid beta (1-42) peptide (Bachem), soluble oligomer aggregates used as neurotoxicant [Aβ (1-42)]”: the “time until the cells stopped firing” value in data set [1] (50 nM Aβ, lowest concentration) is “about 11 h”. Further, in data set [1] (Aβ, highest concentration tested), the “time until spiking activity of the cells stopped” value is “about 150 min”. In data set [1] (setting [5]), the “effect on spontaneous spiking activity” value is reported as “completely abolishes spontaneous spiking activity” and the “firing frequency preceding blockade of spontaneous activity” value is reported as “significant increase in firing frequency”. In addition, in the data set with hippocampal cells (100 nM Aβ, 24 hours and 7 days), the “cell survival compared to the control” value was “small differences in cell survival compared to the control”. In addition, the cell death result in the data set on hippocampal cells (high concentrations of Aβ, cells on MEAs) was “high cell death”. In data set [2] (100 nM Aβ, 24 h), the “outward (K+) currents” value was “increase in the amplitude of the outward (K^+) currents” and the resting membrane potential result is “depolarization in the resting membrane potential”. In addition, in data set [2] (100 nM Aβ, 24 h, 30 exposed cells), the spontaneous firing result is “no spontaneous action potentials were recorded”.

For the compound `COc1cc(/C=C/C(=O)CC(=O)/C=C/c2ccc(O)c(OC)c2)ccc1O` [curcumin], the amyloid plaque burden result in the data set on amyloid plaque burden is “reduce amyloid plaque burden”. Further, the “Aβ oligomerization in the presence of Curcumin” value at Aβ oligomerization [3] is on record as “apparent inhibition of Aβ oligomerization”. Further, the “Aβ oligomer formation and Aβ toxicity” value on Aβ oligomerization [4] is “inhibiting Aβ oligomer formation and Aβ toxicity at significantly lower concentrations than Ibuprofen”. Besides, in data set [1] (after curcumin and Aβ were coadministered), the “time at which drop in firing frequency reached a plateau” value is reported as “about 18 hrs”. Also, the “time at which recovery of spontaneous firing was observed” value in data set [1] (after curcumin was applied post Aβ exposure) is reported as “around 10 hrs”. The “ameliorating Aβ toxicity, coadministration versus administration after 24 h Aβ” value in data set [2] (low doses of curcumin) is recorded as “more successful in ameliorating Aβ toxicity when coadministered with Aβ”.
